Test results reported in patent US10000775B2, “Biosynthesis of 1-undecene and related terminal olefins” (The Regents of the University of California, priority 2013, dated 2018).

Columns and labels:
Assay type in all cases: biochemical, Pseudomonas fluorescens Pf-5
PFL_4321 [1] = test: Metal ion requirement of PFL_4321 in vitro (1-undecene production from lauric acid)
Description: Additional in vitro assays were performed with PFL_4321 using lauric acid, its esters, or thioesters as potential substrates. […] PFL_4321 was incubated with lauric acid in the presence of various metal ions, including Fe^2+, Fe^3+, Mg^2+, Ca^2+, Mn^2+, Co^2+, Ni^2+, Cu^2+, and Zn^2+.

PFL_4321 [2] = test: In vitro enzymatic assays of PFL_4321 with fatty acid substrates or analogs; settings: purified PFL_4321, Fe2+, ascorbic acid
Description: A typical condition is as follows: 1 mL of reaction mixture contains 50 mM MES buffer (pH 6.2), 300 mM NaCl, 100 μM (NH4)2Fe(SO4)2, 1 mM ascorbic acid, 100 μM fatty acid substrate or analogs, and 10 μM enzyme. The reaction was performed in a sealed headspace vial at 30° C., initiated by adding lauric acid and quenched by injecting equal volume of 5 M NaOH. 1-Undecene production was analyzed and quantified by using the SPME-GCMS method. To determine the kinetic parameters of PFL_4321 on lauric acid, initial velocities at 1, 10, 20, 50, 100, and 150 μM of lauric acid were measured (25 mM lauric acid solution was prepared by adding 0.5% tergitol and heating at 65° C. for 10 min). The reactions were quenched at 2, 4, 6, 8, and 10 seconds, and the acquired turnover rates were fit to the Michaelis-Menten equation using GraphPad Prism to obtain kcat and Km. The kcat and Km of myristic acid and capric acid were determined similarly.
To acquire the kinetic parameters of PFL_4321 on 11-aminoundecanoic acid and 12-aminododecanoic acid, initial velocities at 25, 50, 100, 150, 200, 250, 500, and 700 μM were measured. 50 μl of aliquots of the reaction were quenched at 1, 1.5, 2, 2.5, 3, 3.5, 4, 4.5, 5, 5.5, and 6 minutes by adding 100 μl of acetonitrile. Denatured enzymes were removed by centrifugation at 15,000 g for 20 min. LC-HRMS analysis was carried out on an Agilent Technologies 6520 Accurate-Mass Q-TOF LC-MS instrument equipped with an Agilent Eclipse Plus C18 column (3.5 μm, 4.6×100 mm). 10 μL of the solution was injected into LC-HRMS and a linear gradient of 55 to 95% CH3CN (vol/vol) over 15 min in H2O with 0.1% (vol/vol) formic acid at a flow rate of 0.5 mL/min was used for analysis. The exact masses of aminoundec-1-ene and aminodec-1-ene were extracted, and the peaks were integrated and compared with the standard compounds.

PFL_4321 [3] = test: Test of H2O2 as a possible substrate
Description: To examine whether the H2O2/Fe^3+ or the H2O2/Fe^2+ system provides for the PFL_4321 activity, anaerobic enzymatic reactions in the glove box were performed. The deoxygenated reaction mixture contained 50 mM MES buffer (pH 6.2), 100 mM NaCl, 100 μM PFL_4321, 100 μM either FeCl3 or (NH4)2Fe(SO4)2, 1 mM LA, and various amount of H2O2 (100, 200, 500, 1000, 5000 μM), and 1-undecene production was analyzed. The aerobic reaction was carried out under similar conditions except that the O2 was provided by mixing with the equal volume of O2-saturated buffer solution (50 mM MES, pH 6.2, 100 mM NaCl).

PFL_4321 [4] = test: Survey of reductive cofactors/cosubstrates under iron-limited conditions; settings: iron-limiting conditions; 1 mM reductive cofactor
Description: FIG. 7 illustrates a comparison of 1-undecene production by using various reductive cofactors/cosubstrates under iron-limited conditions. 2.5 mL of reaction mixture contains 100 μM MES (pH 6.1), 300 mM NaCl, 50 μM lauric acid, 5 μM PFL_4321, 0.1 μM (NH4)2Fe(SO4)2, and 1 mM reductive cofactor. When needed, 40 μM FAD, FMN, ferredoxin, or phenazine, and 20 μM flavin reductase (FL-R) or ferredoxin reductase (FR) were added.
A survey was conducted to identify the possible reductive cofactor/cosubstrates according to the well-studied oxygen-activating iron-dependent oxygenases, including but not limited to α-ketoglutarate, ascorbic acid, glutathione, cysteine, nicotinamides, flavins, ferredoxin (F. H. Vaillancourt et al., Nature 436, 1191, 2005; W. C. Chang et al., Nature 496, 114, 2013; L. M. Mirica et al., J Am Chem Soc 130, 8122, 2008; P. C. Bruijnincx et al., Chem Soc Rev 37, 2716, 2008). […] Accordingly, ascorbic acid was included in all of the following in vitro assays and the kinetic parameters of PFL_4321 toward lauric acid (C12) were determined (FIG. 8).

PFL_4321 [5] = test: Reductive co-substrate screening, with chlorite dismutase coupled assay; settings: coupled with chlorite dismutase reaction to generate O2 in situ
Description: FIG. 28 illustrates a comparison of 1-undecene production by using various reductive cofactors/cosubstrates in the presence of excessive O2 provided by the coupled […] dismutase reaction. The reaction mixture contains 100 μM MES (pH 6.1), 300 mM NaCl, 1 mM lauric acid (dissolved in 0.5% tergitol), 100 μM PFL_4321, 100 μM (NH4)2Fe(SO4)2, 2 μM chlorite dismutase, 4 mM sodium chlorite, and 2 mM reductive cofactor/co-substrates. When needed, 40 μM FAD, FMN, ferredoxin, PQQ, or PMS, and 20 μM flavin reductase (FL-R) or ferredoxin reductase (FR) were added. 1-undecene production was analyzed after reacting for 100 min. Error bars represent standard deviations from at least three independently performed experiments.
To survey the possible reductive co-substrates, the oxygenated buffer solution (50 mM MES, pH 6.2, 100 mM NaCl) was mixed with an equal volume of an O2-free solution containing 50 mM MES buffer (pH 6.2), 100 mM NaCl, 200 μM PFL_4321, 200 μM (NH4)2Fe(SO4)2, 2 mM LA, and 4 mM of the reductive co-substrate, so that the final mixture contained 50 mM MES buffer (pH 6.2), 100 mM NaCl, 100 μM PFL_4321, 100 μM (NH4)2Fe(SO4)2, 1 mM LA, and 2 mM of the reductive co-substrate. The reaction was carried out in a sealed GC vial due to the semi-volatility of 1-undecene. […]

Row | Compound | conversion of the substrate by PFL_4321 (to the corresponding minus-1-carbon 1-alkene or other product) (PFL_4321 [2]) | other results
1 | [Fe+2] [Fe^2+] | – | 1-undecene production by PFL_4321 with lauric acid in the presence of the metal ion (PFL_4321 [1]; PFL_4321 incubated with lauric acid and metal ion): elicited the 1-undecene production
2 | CCCCCCCCCCCCCC(=O)O [myristic acid] | converted | –
3 | O=C(O)CCCCCCCCCCCBr [12-bromododecanoic acid] | catalyzed the conversion | –
4 | OO [H2O2] | – | 1-undecene formation in the presence of H2O2 (PFL_4321 [3]; anaerobic reactions with either PFL_4321-Fe(III) or PFL_4321-Fe(II)): no 1-undecene was formed; 1-undecene formation in the presence of H2O2 (PFL_4321 [3]; both H2O2 and O2, PFL_4321-Fe(III)): no 1-undecene was formed; effect of H2O2 on 1-undecene formation (PFL_4321 [3]; reaction containing O2 and PFL_4321-Fe(II)): did not promote
5 | NCCCCCCCCCCCC(=O)O [12-aminododecanoic acid] | catalyzed the conversion | –
6 | CCCCCCCCC(C)CCC(=O)O (centres unmarked) [4-methyldodecanoic acid] | converted to their corresponding terminal olefins | –
7 | O=C1O[C@H]([C@@H](O)CO)C(O)=C1O [ascorbic acid] | – | effect on the yield of 1-undecene (PFL_4321 [4]): significantly increased; multiple turnovers for PFL_4321 in vitro (PFL_4321 [5]): allowed for multiple turnovers; rate of 1-undecene production with multiple turnovers (PFL_4321 [5]): four
8 | O=C(O)CCCCCCCCCCBr [11-bromoundecanoic acid] | catalyzed the conversion | –
9 | CCCCCCCC(=O)O [caprylic acid] | failed to act | –
10 | N[C@@H](CS)C(=O)O [cysteine] | – | effect on the yield of 1-undecene (PFL_4321 [4]): modest effect
11 | CCCCCCCCCC(O)CC(=O)O (stereo not drawn) [β-hydroxydodecanoic acid] | no activity | –
12 | C#CCCCCCCCCC(=O)O [10-undecynoic acid] | catalyzed the conversion | –
13 | O=S(O)S(=O)O [dithionite] | – | effect on 1-undecene production by PFL_4321 (PFL_4321 [3]; added to reduce O2 to H2O2 in situ): inhibited
14 | [D23]lauric acid | led to the production of [D22]1-undecene | –
15 | O=C(O)CN(CCN(CC(=O)O)CC(=O)O)CC(=O)O [EDTA, ethylenediaminetetraacetic acid] | – | effect on 1-undecene formation by PFL_4321, lauric acid and E. coli crude extract (PFL_4321 [1]; addition of chelating agent): quenched
16 | NCCCCCCCCCCC(=O)O [11-aminoundecanoic acid] | catalyzed the conversion | –
17 | CCCCCCCCCC=CC(=O)O [2,3-dodecenoic acid] | no activity | –
18 | CCCCCCCCCCCCCCCC(=O)O [palmitic acid] | failed to act | –
19 | CCCCCCCCCCC(O)C(=O)O (stereo not drawn) [α-hydroxydodecanoic acid] | transformed | –
20 | CC(C)CCCCCCCCCC(=O)O [11-methyldodecanoic acid] | converted to their corresponding terminal olefins | –
21 | CCCCCCCCCC(=O)O [capric acid] | converted | –
22 | [2H]C([2H])(CCCCCCCCCC)C(=O)O [[α,α-D2]lauric acid] | led to the production of 1-undecene retaining both deuterium atoms | –
